How the values were obtained:
Assay type in all cases: in vivo, C57BL/6 mice
[1] = tested on: high-fat-diet-induced obesity mouse model; test: Blood cholesterol and triglyceride levels in high-fat-diet-induced obesity mouse model; conditions: 10 mg/kg orally once a day for 13 weeks, vs vehicle
Protocol: (§1) 8-week-old C57BL/6 mice were fed with a 60% high-fat diet, and a vehicle or irosustat (10 mg/kg) prepared in Preparation Example 1 was administered orally to the mice once a day for a total of 10 days.
An experiment was performed under the same conditions as in Experimental Example 1 above, except that the blood cholesterol and triglyceride levels in the control group and the drug-administered group were measured after oral administration of irosustat for 13 weeks. The results of measurement of the cholesterol and triglyceride levels are shown in FIGS. 11 and 12, respectively.

[2] = tested on: high-fat-diet-induced obesity mouse model; test: Adipocyte size in abdominal fat tissue, high-fat-diet-induced obesity mouse model; conditions: 10 mg/kg orally once a day for 13 weeks, vs vehicle
Protocol: as §1
An experiment was performed under the same conditions as in Experimental Example 1 above, except that the mice were euthanized after oral administration of irosustat for 13 weeks and abdominal fat tissue was taken and then imaged with a microscope. In addition, the areas of adipocytes in the abdominal fat tissue in the control group and the drug-administered group were measured, and the results are shown in FIG. 5.

[3] = tested on: high-fat-diet-induced obesity mouse model; test: Fat mass and lean mass by DEXA in high-fat-diet-induced obesity mouse model; conditions: 10 mg/kg orally once a day for 13 weeks, vs vehicle
Protocol: as §1
An experiment was performed under the same conditions as in Experimental Example 1 above, except that the mice were imaged using DEXA (Dual-energy X-ray absorptiometry) after the vehicle or irosustat was administered orally to the mice for 13 weeks.

[4] = tested on: high-fat-diet-induced obesity mouse model; test: Hepatic steatosis amelioration, liver tissue microscopy, high-fat-diet-induced obesity mouse model; conditions: 10 mg/kg orally once a day for 13 weeks, vs vehicle
Protocol: as §1
An experiment was performed under the same conditions as in Experimental Example 1 above, except that the mice were euthanized after oral administration of irosustat for 13 weeks and hepatic tissue was taken and then imaged with a microscope.

[5] = tested on: high-fat-diet-induced obesity mouse model; test: Insulin tolerance test (ITT) in high-fat-diet-induced obesity mouse model; conditions: 10 mg/kg orally for 12 weeks, 2 h fast, insulin 0.8 units/kg i.p., 0-120 min, vs vehicle
Protocol: as §1
An experiment was performed under the same conditions as in Experimental Example 1 above, except that the mice were fasted for 2 hours after oral administration of irosustat for 12 weeks, and then the blood glucose levels of the mice were measured and insulin was injected intraperitoneally into the mice at a dose of 0.8 units/kg body weight. 0 min, 15 min, 30 min, 60 min, 90 min and 120 min after intraperitoneal injection, blood was collected from the tail of each mice and the glucose level in the blood was measured.

[6] = tested on: high-fat-diet-induced obesity mouse model; test: Glucose tolerance test (GTT) in high-fat-diet-induced obesity mouse model; conditions: 10 mg/kg orally for 11 weeks, 16 h fast, glucose 1 g/kg i.p., 0-120 min, vs vehicle
Protocol: as §1
An experiment was performed under the same conditions as in Experimental Example 1 above, except that the mice were fasted for 16 hours after oral administration of irosustat for 11 weeks, and glucose was injected intraperitoneally into the mice at a dose of 1 g/kg body weight. 0 min, 15 min, 30 min, 60 min, 90 min and 120 min after intraperitoneal injection, blood was collected from the tail of each mice and the glucose level in the blood was measured. However, during the glucose tolerance test, a stable environment was provided to the experimental animals. In addition, AUC (area under the glucose-time curve) was measured using the following Equation 1 and the results are shown in FIG. 8. In Equation 1, C0, C15, C30, C60, C90 and C120 are glucose levels measured at 0 min, 15 min, 30 min, 60 min, 90 min and 120 min, respectively. AUC=0.5×(0.5×C0+C15+C30+C60+C90+0.5×C120) [Equation 1]

[7] = tested on: high-fat-diet-induced obesity mouse model; test: Weight loss effect in high-fat-diet-induced obesity mouse model; conditions: irosustat 10 mg/kg orally once a day, 60% high-fat diet
Protocol: as §1

SMILES: NS(=O)(=O)Oc1ccc2c3c(c(=O)oc2c1)CCCCC3 [irosustat, (6-oxo-8,9,10,11-tetrahydro-7H-cyclohepta[c]chromen-3-yl) sulfamate]
- blood cholesterol level [1]: significantly decreased
- blood triglyceride level [1]: significantly decreased
- size of adipocytes in abdominal fat tissue [2]: significantly decreased
- fat mass [3]: significantly decreased
- findings of hepatic steatosis caused by the high-fat diet [4]: significantly improved
- blood glucose level in insulin tolerance test (time course and AUC) [5]: significantly decreased
- blood glucose level in glucose tolerance test (time course and AUC) [6]: significantly decreased
- body weight ([7]; C57BL/6 mice, vehicle control 36.4+/−3.4 g): 31.4 ± 5.0 g
- decrease of body weight compared to control group ([7]; vs vehicle): about 14%
